Data reported in ChEMBL document CHEMBL5370648, “Rational Design of Bioorthogonally Activatable PROTAC for Tumor-Targeted Protein Degradation” (J Med Chem, 2023).
Calls of active or inactive are those of the source. No cut-off for these calls is given here.

What was measured:
[1] = test system: MCF7; experiment: Cytotoxicity against 12 hrs BODIPY-TZ treated human MCF7 cells assessed as inhbition of cell growth measured after 48 hrs by CCK-8 method; assay type: functional, cell-based
[2] = test system: MCF7; experiment: Cytotoxicity against human MCF7 cells assessed as inhbition of cell growth measured after 48 hrs by CCK-8 method; assay type: functional, cell-based; conditions: MCF7, 48 h
[3] = molecular target: T1, von Hippel-Lindau disease tumor suppressor/Bromodomain-containing protein 4 (Homo sapiens, UniProt O60885+P40337); experiment: PROTAC activity at BRD4/VHL E3 ligase in 12 hrs BODIPY-TZ treated human MDA-MB-231 cells assessed as reduction in BRD4 expression at upto 2.0 uM incubated for 48 hrs by Western blot analysis; assay type: cell-based
[4] = test system: T47D; experiment: Cytotoxicity against 12 hrs BODIPY-TZ treated human T47D cells assessed as inhbition of cell growth measured after 48 hrs by CCK-8 method; assay type: functional, cell-based
[5] = molecular target: T1, von Hippel-Lindau disease tumor suppressor/Bromodomain-containing protein 4; experiment: PROTAC activity at BRD4/VHL E3 ligase in 12 hrs BODIPY-TZ treated human MDA-MB-231 cells assessed as suppression of c-Myc expression incubated for 48 hrs by Western blot analysis; assay type: cell-based
[6] = molecular target: von Hippel-Lindau disease tumor suppressor/Bromodomain-containing protein 3 (Homo sapiens) (UniProt Q15059+P40337); experiment: PROTAC activity at BRD3/VHL E3 ligase in 12 hrs BODIPY-TZ treated human T47D cells assessed as reduction in BRD3 expression at upto 2.0 uM incubated for 48 hrs by Western blot analysis; assay type: cell-based
[7] = molecular target: T1, von Hippel-Lindau disease tumor suppressor/Bromodomain-containing protein 4; experiment: PROTAC activity at BRD4/VHL E3 ligase in 12 hrs BODIPY-TZ treated human MCF7 cells assessed as degradation of BRD4 expression incubated for 48 hrs by Western blot analysis; assay type: cell-based
[8] = test system: MCF7; experiment: Antitumor activity against human MCF7 cells xenografted in BALB/c nude mouse assessed as apoptosis at 20 mg/kg measured after 48 hrs in presence of IR808-TZ by Western blot analysis; assay type: functional, organism-based
[9] = molecular target: T1, von Hippel-Lindau disease tumor suppressor/Bromodomain-containing protein 4; experiment: In vivo PROTAC activity at BRD4/VHL E3 ligase in BALB/c nude mouse xenografted with human MCF7 cells assessed as reduction in BRD4 protein level in tumor 10 mg/kg measured after 48 hrs in presence of IR808-TZ by Western blot analysis; assay type: functional, organism-based

T1 sequence (P40337 whole entry, looked up, other chains not shown): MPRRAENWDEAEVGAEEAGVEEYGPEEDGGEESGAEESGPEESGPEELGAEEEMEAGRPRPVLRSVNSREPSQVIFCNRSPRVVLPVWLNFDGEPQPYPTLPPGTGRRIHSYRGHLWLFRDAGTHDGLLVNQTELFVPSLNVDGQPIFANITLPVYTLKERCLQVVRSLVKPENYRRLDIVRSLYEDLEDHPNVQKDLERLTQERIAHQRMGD
Sequence of von Hippel-Lindau disease tumor suppressor/Bromodomain-containing protein 3 (Homo sapiens) (P40337 whole entry partner): as the sequence (P40337 whole entry, looked up, other chains not shown) above
Sequence of von Hippel-Lindau disease tumor suppressor/Bromodomain-containing protein 3 (Homo sapiens) (Q15059 2-726 limits assumed): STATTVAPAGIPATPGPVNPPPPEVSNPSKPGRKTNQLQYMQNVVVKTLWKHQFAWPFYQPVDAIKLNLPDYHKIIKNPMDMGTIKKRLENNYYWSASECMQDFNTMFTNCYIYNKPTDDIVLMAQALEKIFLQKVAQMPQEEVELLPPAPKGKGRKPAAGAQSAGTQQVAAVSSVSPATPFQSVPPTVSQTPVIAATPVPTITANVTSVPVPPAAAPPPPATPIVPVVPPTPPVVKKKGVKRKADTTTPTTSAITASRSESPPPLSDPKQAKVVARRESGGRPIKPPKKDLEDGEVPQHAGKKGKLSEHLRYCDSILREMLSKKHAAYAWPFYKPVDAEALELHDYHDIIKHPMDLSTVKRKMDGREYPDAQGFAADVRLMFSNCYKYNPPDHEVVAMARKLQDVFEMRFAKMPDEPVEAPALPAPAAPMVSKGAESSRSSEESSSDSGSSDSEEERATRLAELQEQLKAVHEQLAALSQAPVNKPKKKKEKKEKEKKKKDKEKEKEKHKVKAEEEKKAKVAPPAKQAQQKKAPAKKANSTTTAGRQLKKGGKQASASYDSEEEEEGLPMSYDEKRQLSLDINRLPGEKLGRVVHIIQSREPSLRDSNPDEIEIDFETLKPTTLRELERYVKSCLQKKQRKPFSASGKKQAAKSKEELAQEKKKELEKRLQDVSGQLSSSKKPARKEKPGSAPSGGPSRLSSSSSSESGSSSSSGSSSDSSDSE

## CC1=CC(C)=[N+]2C1=C(c1cccc(-c3nnc(C)nn3)c1)c1c(C)cc(C)n1[B-]2(F)F
[1]
  IC50: 264 nM
[2]
  IC50: 1320 nM
[3]
  Activity: Active
[4]
  IC50: 407 nM
[5]
  Activity: Active
[6]
  Activity: Active
[7]
  Activity: Active
[8]
  Activity: Active
[9]
  Activity: Active
